Reference: patent US7605272B2, “IGF-1R inhibitor” (Kyowa Hakko Kirin Co., Ltd., priority 2005, dated 2009)
Like-named read-outs stand apart in the source and are kept apart here.

Assays:
NCI-H929 = test: Cytostatic activity on human multiple myeloma cell line NCI-H929 (WST-1); type: cell-based; conditions: for inhibition at 1 µM / inhibition at 10 µM: Homo sapiens, NCI-H929, 72 h; for inhibition at 1 µM: read-out: cytostatic rate (%) H929 (1 μmol/L); for inhibition at 10 µM: 10 μmol/L, read-out: cytostatic rate (%) H929 (10 μmol/L)
Method in brief: (§1)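 Cells pre-cultured 24 h at 37 °C, 5% CO2, then exposed 72 h to compound at final 1 or 10 μmol/L (0.1% DMSO). WST-1 added for 2 h, absorbance at 450 nm (ref 690 nm). Cytostatic rate = 100 minus relative growth, with DMSO control as 100% and blank as 0%.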

KMS-11 = test: Cytostatic activity on human multiple myeloma cell line KMS-11 (WST-1); type: cell-based; conditions: for inhibition at 1 µM / inhibition at 10 µM: Homo sapiens, KMS-11, 72 h; for inhibition at 1 µM: read-out: cytostatic rate (%) KMS-11 (1 μmol/L); for inhibition at 10 µM: 10 μmol/L, read-out: cytostatic rate (%) KMS-11 (10 μmol/L)
Method in brief: as §1

IGF-1R = biological target: T1, IGF-1R (Homo sapiens, UniProt P08069); test: IGF-1R inhibitory activity (kinase reaction, time-resolved fluoroimmunoassay); type: biochemical; conditions: test compound 10 μmol/L
T1 construct: purchased Upstate Co. 14-465
T1 sequence (P08069 959-1367 limits assumed): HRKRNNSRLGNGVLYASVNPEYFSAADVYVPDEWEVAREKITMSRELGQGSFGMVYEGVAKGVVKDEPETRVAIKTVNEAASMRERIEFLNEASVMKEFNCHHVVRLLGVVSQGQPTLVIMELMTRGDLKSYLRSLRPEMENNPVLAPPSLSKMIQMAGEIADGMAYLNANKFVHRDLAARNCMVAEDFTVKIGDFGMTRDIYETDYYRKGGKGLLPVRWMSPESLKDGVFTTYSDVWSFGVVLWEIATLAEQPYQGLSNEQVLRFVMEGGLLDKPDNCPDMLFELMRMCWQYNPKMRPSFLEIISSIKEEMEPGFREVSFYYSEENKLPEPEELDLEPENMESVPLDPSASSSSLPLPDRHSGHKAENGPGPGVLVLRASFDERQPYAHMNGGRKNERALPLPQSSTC
Method in brief: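 Compounds were tested at a single 10 μmol/L concentration. Each was incubated with recombinant IGF-1R (200 μg/L), 10 mmol/L ATP, MgCl2/MnCl2 and Na3VO4 (pH 7.5) on immobilized poly(Glu-Tyr) peptide for 30 min at 24° C. Eu-anti-phosphotyrosine time-resolved fluorescence (340/615 nm) gave relative activity against no-compound and no-enzyme wells, reported as % inhibition.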

[1] = IGF-1R active recombinant enzyme
[2] = NCI-H929 cells, test compound 1 μmol/L, WST-1
[3] = KMS-11 cells, test compound 1 μmol/L, WST-1

| inhibition at 10 µM (IGF-1R; [1]) [%] | SMILES | inhibition at 1 µM (NCI-H929; 1 μmol/L, 72 hours) [%] | inhibition at 1 µM (KMS-11; 1 μmol/L, 72 hours) [%] | inhibition at 10 µM (NCI-H929; 72 hours) [%] | inhibition at 10 µM (KMS-11; 72 hours) [%] | further results |
| --- | --- | --- | --- | --- | --- | --- |
| 101 | Cc1ccsc1C(=O)Nc1cc(N2CCN(S(C)(=O)=O)CC2)ccc1/C=C/c1n[nH]c2ccccc12 [Compound 272, (E)-N-{2-[2-(1H-indazol-3-yl)vinyl]-5-(4-methanesulfonylpiperazin-1-yl)phenyl}-3-methylthiophene-2-carboxamide] | 120 | 135 |  |  |  |
| 100 | Cc1ccsc1C(=O)Nc1cc(CN2CCN(C(=O)CO)CC2)ccc1/C=C/c1n[nH]c2ccccc12 [Compound 248, (E)-N-{2-[2-(1H-indazol-3-yl)vinyl]-5-[4-(2-hydroxyacetyl)piperazin-1-ylmethyl]phenyl}-3-methylthiophene-2-carboxamide] | 114 | 113 |  |  |  |
| 101 | Cc1ccsc1C(=O)Nc1cc(CN2CCN(C[C@H](O)CO)CC2)ccc1/C=C/c1n[nH]c2ccccc12 [Compound 302, (E)-(S)—N-{5-[4-(2,3-dihydroxypropyl)piperazin-1-ylmethyl]-2-[2-(1H-indazol-3-yl)vinyl]phenyl}-3-methylthiophene-2-carboxamide] | 115 | 99.4 |  |  |  |
| 97.2 | Cc1ccsc1C(=O)Nc1cc(C(=O)N2CCC(N(C)C)C2)ccc1/C=C/c1n[nH]c2ccccc12 (stereo not drawn) [Compound 295, (E)-N-{5-[3-(dimethylamino)pyrrolidin-1-ylcarbonyl]-2-[2-(1H-indazol-3-yl)vinyl]phenyl}-3-methylthiophene-2-carboxamide] | 118 | 118 |  |  |  |
| 99.5 | Cc1ccsc1C(=O)Nc1cc(CN2CCN(CCCO)CC2)ccc1/C=C/c1n[nH]c2ccccc12 [Compound 277, (E)-N-{5-[4-(3-hydroxypropyl)piperazin-1-ylmethyl]-2-[2-(1H-indazol-3-yl)vinyl]phenyl}-3-methylthiophene-2-carboxamide] | 119 | 107 |  |  |  |
| 98.2 | COCCN1CCN(c2ccc(/C=C/c3n[nH]c4ccccc34)c(NC(=O)c3sccc3C)c2)CC1 [Compound 279, (E)-N-{2-[2-(1H-indazol-3-yl)vinyl]-5-[4-(2-methoxyethyl)piperazin-1-yl]phenyl}-3-methylthiophene-2-carboxamide] | 112 | 111 |  |  |  |
| 102 | Cc1ccsc1C(=O)Nc1cc(CN2CC[C@@H](O)C2)ccc1/C=C/c1n[nH]c2ccccc12 [Compound 330, (R)-(E)-N-{5-(3-hydroxypyrrolidin-1-ylmethyl)-2-[2-(1H-indazol-3-yl)vinyl]phenyl}-3-methylthiophene-2-carboxamide] |  |  |  |  | inhibition at 1 µM (NCI-H929; [2]): 131%; inhibition at 1 µM (KMS-11; [3]): 112% |

Further lines, the compound ahead of its results:

| SMILES | inhibition at 10 µM (IGF-1R; [1]) [%] | inhibition at 1 µM (NCI-H929; 1 μmol/L, 72 hours) [%] | inhibition at 1 µM (KMS-11; 1 μmol/L, 72 hours) [%] | inhibition at 10 µM (NCI-H929; 72 hours) [%] | inhibition at 10 µM (KMS-11; 72 hours) [%] | further results |
| --- | --- | --- | --- | --- | --- | --- |
| COCCCN1CCN(Cc2ccc(/C=C/c3n[nH]c4ccccc34)c(NC(=O)c3sccc3C)c2)CC1 [Compound 304, (E)-N-{2-[2-(1H-indazol-3-yl)vinyl]-5-[4-(3-methoxypropyl)piperazin-1-ylmethyl]phenyl}-3-methylthiophene-2-carboxamide] | 102 | 115 | 105 |  |  |  |
| O=C(Nc1ccccc1/C=C/c1n[nH]c2ccccc12)c1ccc([N+](=O)[O-])o1 [Compound 63, (E)-N-{2-[2-(1H-indazol-3-yl)vinyl]phenyl}-5-nitrofuran-2-carboxamide] | 99.2 |  |  | 109 | 125 |  |
| COCCN(CCN(C)C)c1ccc(/C=C/c2n[nH]c3ccccc23)c(NC(=O)c2sccc2C)c1 [Compound 284, (E)-N-{5-[N-(2-dimethylaminoethyl)-2-(methoxyethyl)amino]-2-[2-(1H-indazol-3-yl)vinyl]phenyl}-3-methylthiophene-2-carboxamide] |  |  |  |  |  | cytostatic rate (%) H929 (1 μmol/L) (NCI-H929; 1 μmol/L, 72 hours): 121.2%; cytostatic rate (%) KMS-11 (1 μmol/L) (KMS-11; 1 μmol/L, 72 hours): 130.8%; inhibitory activity (%) at 10 μmol/L (IGF-1R; [1]): 97.5% |
| COc1c(OCCN2CCC(O)CC2)ccc(/C=C/c2n[nH]c3ccccc23)c1NC(=O)c1sccc1C [Compound 349, (E)-{3-[2-(4-hydroxypiperidin-1-yl)ethoxy]-6-[2-(1H-indazol-3-yl)vinyl]-2-methoxyphenyl}-3-methylthiophene-2-carboxamide] |  |  |  |  |  | cytostatic rate (%) H929 (1 μmol/L) (NCI-H929; 1 μmol/L, 72 hours): 116.3%; cytostatic rate (%) KMS-11 (1 μmol/L) (KMS-11; 1 μmol/L, 72 hours): 117.2%; inhibitory activity (%) at 10 μmol/L (IGF-1R; [1]): 101.9% |
| O=C(Nc1ccccc1/C=C/c1n[nH]c2ccccc12)c1sccc1Cl [Compound 54, (E)-3-chloro-N-{2-[2-(1H-indazol-3-yl)vinyl]phenyl}thiophene-2-carboxamide] | 96.7 |  |  | 118 | 126 |  |
| COc1cc(/C=C/c2n[nH]c3ccccc23)c(NC(=O)c2sccc2C)cc1OCCCN1CCOCC1 [Compound 292, (E)-N-{2-[2-(1H-indazol-3-yl)vinyl]-4-methoxy-5-[3-(morpholin-4-yl)propyloxy]phenyl}-3-methylthiophene-2-carboxamide] | 97.2 | 113 | 122 |  |  |  |
| CC(=O)N1CCN(C(=O)c2ccc(/C=C/c3n[nH]c4ccccc34)c(NC(=O)c3cc4ccccc4s3)c2)CC1 [Compound 90, (E)-N-{5-(4-acetylpiperazin-1-ylcarbonyl)-2-[2-(1H-indazol-3-yl)vinyl]phenyl}benzo[b]thiophene-2-carboxamide] |  |  |  | 114 | 136 | inhibition at 10 µM (IGF-1R): 97% |
| CN(C)c1ccc(/C=C/c2n[nH]c3ccccc23)c(NC(=O)c2cccn2C)c1 [Compound 107, (E)-N-{5-dimethylamino-2-[2-(1H-indazol-3-yl)vinyl]phenyl}-1-methyl-1H-pyrrole-2-carboxamide] |  |  |  | 119 | 119 | inhibition at 10 µM (IGF-1R): 92.8% |
| Cn1c(C(=O)Nc2ccccc2/C=C/c2n[nH]c3ccccc23)cc2ccccc21 [Compound 55, (E)-N-{2-[2-(1H-indazol-3-yl)vinyl]phenyl}-1-methyl-1H-indole-2-carboxamide] | 98.9 |  |  | 115 | 132 |  |
| COc1c(OCCN2C(=O)CNC2=O)ccc(/C=C/c2n[nH]c3ccccc23)c1NC(=O)c1sccc1C [Compound 334, (E)-N-{6-[2-(1H-indazol-3-yl)vinyl]-2-methoxy-3-[2-(2,5-dioxoimidazolidin-1-yl)ethoxy]phenyl}-3-methylthiophene-2-carboxamide] | 102 |  |  |  |  | inhibition at 1 µM (NCI-H929; [2]): 111%; inhibition at 1 µM (KMS-11; [3]): 97.5% |
| COc1c(OCCCN2CCOCC2)ccc(/C=C/c2n[nH]c3ccccc23)c1NC(=O)c1sccc1C [Compound 342, (E)-N-{6-[2-(1H-indazol-3-yl)vinyl]-2-methoxy-3-(3-morpholin-4-yl)propoxyphenyl}-3-methylthiophene-2-carboxamide] |  |  |  |  |  | cytostatic rate (%) H929 (1 μmol/L) (NCI-H929; [2]): 118.7%; cytostatic rate (%) KMS-11 (1 μmol/L) (KMS-11; [3]): 122.6%; inhibitory activity (%) at 10 μmol/L (IGF-1R; [1]): 101.6% |
| Cc1ccsc1C(=O)Nc1cc(CN2CCN(CCC#N)CC2)ccc1/C=C/c1n[nH]c2ccccc12 [Compound 268, (E)-N-{5-[4-(2-cyanoethyl)piperazin-1-ylmethyl]-2-[2-(1H-indazol-3-yl)vinyl]phenyl}-3-methylthiophene-2-carboxamide] | 101 | 118 | 129 |  |  |  |
| COc1cccc(C(=O)Nc2ccccc2/C=C/c2n[nH]c3ccccc23)c1 [Compound 19, (E)-N-{2-[2-(1H-indazol-3-yl)vinyl]phenyl}-3-methoxybenzamide] | 95.3 |  |  | 132 | 110 |  |
| COc1c(OCCCN(C)CCO)ccc(/C=C/c2n[nH]c3ccccc23)c1NC(=O)c1sccc1C [Compound 347, (E)-N-{3-{3-[(2-hydroxyethyl)methylamino]propoxy}-6-[2-(1H-indazol-3-yl)vinyl]-2-methoxyphenyl}-3-methylthiophene-2-carboxamide] | 106 | 116 | 116 |  |  |  |
| O=C(CCc1cccs1)Nc1ccccc1/C=C/c1n[nH]c2ccccc12 [Compound 39, (E)-N-{2-[2-(1H-indazol-3-yl)vinyl]phenyl}-3-(thiophen-2-yl)propionamide] | 59.1 |  |  | 68.8 | 91 |  |
| COc1cc(/C=C/c2n[nH]c3ccccc23)c(NC(=O)c2sccc2C)cc1OCCN1CCOCC1 [Compound 293, (E)-N-{2-[2-(1H-indazol-3-yl)vinyl]-4-methoxy-5-[2-(morpholin-4-yl)ethoxy]phenyl}-3-methylthiophene-2-carboxamide] | 98.9 | 110 | 119 |  |  |  |
| Nc1ccn(C(=O)c2ccccc2/C=C/c2n[nH]c3ccccc23)n1 [Compound 48, (E)-3-amino-1-{2-[2-(1H-indazol-3-yl)vinyl]benzoyl}pyrazole] | 99.3 |  |  | 111 | 90.1 |  |
